Results: patent EP1336602A1, “Nitrate prodrugs able to release nitric oxide in a controlled and selective way and their use for prevention and treatment of inflammatory, ischemic and proliferative diseases” (Scaramuzzino, Giovanni, priority 2002, dated 2003)

Assays:
[1] = test system: S-nitrosohemoglobin (SNO-Hb); assay: S-nitrosohemoglobin (SNO-Hb) levels in rat blood, photolysis-chemiluminescence; assay type: in vivo, Sprague-Dawely rats; details: 100 mg/Kg i.p., versus endogenous levels
Procedure: A highly sensitive photolysis-chemiluminescence methodology was used. Nitric oxide, released from Hb-SNO through photolysis, was detected in a chemiluminescence spectrometer by reaction with ozone (McMahon, T. J., and Stamler, J. S. (1999) Methods Enzymol. 301, 99-114).
Blood was obtained from the left ventricle (arterial) and jugular vein (venous) of anesthetized Sprague-Dawely rats: 12 were controls and 12 were treated with 100 mg/Kg of N-[4-(5-p-tolyl-3-trifluoromethyl-1H-pyrazol-1-yl)phenylsulfonyl]-p-nitroxymethylbenzamide (Ela). Red blood cells were isolated by centrifugation at 800 g, washed three times in phosphate buffered saline at 4 °C, lysed by the addition of 4-fold excess volume of deionized water containing 0.5 mM EDTA and desalted rapidly according to the method of Penefsky at 4 °C.
In 24 rats, Hb samples were divided in two aliquots which were then treated or not treated with 10-fold excess HgCl2 which can remove the signal of Hb(Fell)NO.

[2] = male, Wistar, in vivo, po, 1.09 mg/kg

SMILES | S-nitrosohemoglobin (SNO-Hb) levels in rat arterial blood ([1]; arterial blood (left ventricle)) | S-nitrosohemoglobin (SNO-Hb) levels in rat venous blood ([1]; venous blood (jugular vein)) | Rat arterial blood pressure [2]
Cc1ccc(-c2cc(C(F)(F)F)nn2-c2ccc(S(=O)(=O)NC(=O)c3ccc(CO[N+](=O)[O-])cc3)cc2)cc1 [Ela, N-[4-(5-p-tolyl-3-trifluoromethyl-1H-pyrazol-1-yl)phenylsulfonyl]-p-nitroxymethylbenzamide] | significantly increase | significantly increase | 
C[C@@H]1C[C@H]2[C@@H]3CCC4=CC(=O)C=C[C@]4(C)[C@@]3(F)[C@@H](O)C[C@]2(C)[C@@]1(O)C(=O)COC(=O)c1ccc(CO[N+](=O)[O-])cc1 [ECXCa, (11β,16α)-9-fluoro-11,17-dihydroxy-21-(p-nitroxymethylbenzoyloxy)-pregna-1,4-diene-3,20-dione] |  |  | 100%
